Assay results taken from patent US5130302A, “Boronated nucleoside, nucleotide and oligonucleotide compounds, compositions and methods for using same” (Boron Bilogicals, Inc., priority 1989, dated 1992).
In brackets after ≈: the same amount, converted by molar mass. Like-named read-outs stand apart in the source and are kept apart here.

How the values were obtained:
P388 = experiment: Cytotoxicity, P388; type: cell-based
Procedure: (§1) The cytotoxic screens were conducted according to NIH protocols, see E. Huang et al., J. Pharm. Sci. 61, 108 (1972), with 10^4 cells, growth medium, antibiotics and drugs from 0.5 to 100 μg/ml final concentration. For the L1210, Hela-S, amd Tmolt, (i.e. the suspended cells), the incubations were conducted in sterile test tubes in a final volume of 1 ml for 72 hr at 37° C. in a CO2 incubator. The cells on the third day were still in log growth phase. The number of cells/ml are determined using trypan blue exclusion and a hemocytometer. See, e.g., R. Geran, supra. For solid tumors there is plated out in wells 1×10^4 cells with 1 ml of medium+antibiotics and the other components of growth. When the controls have converged (≈95%) then the density of the cells is estimated and the ED50 values calculated.

[1] = tested on: KB epidermoid oral nesopharnyx; experiment: Cytotoxicity, KB epidermoid oral nasopharynx; type: cell-based; conditions: Homo sapiens, read-out: ED50 (cytotoxicity), KB
Procedure: 6. KB epidermoid oral nesopharnyx. R. Geran, supra: H. Eagle, Proc. Soc. Expt.
Biol. 89, 362 (1955)(grown in EMEM +5% calf serum).
as §1

Hela-S = experiment: Cytotoxicity, Hela-S cervical carcinoma suspended; type: cell-based; conditions: Homo sapiens, read-out: ED50 (cytotoxicity), Hela-S
Procedure: 7. Hela-S, ATCC-CCL 2.2, cervical carcinoma suspended, S. Schreiber and N. Ikemoto, supra; T. Puck et al., J. Exp. Med. 103. 273 (1956) (grown in Joklik+5% FBS, Ham's F12 +5% FBS).
as §1

[2] = tested on: Tmolt acute lymphoblastic T cell leukemia; experiment: Cytotoxicity, Tmolt acute lymphoblastic T cell leukemia; type: cell-based; conditions: for IC50: T-cell, read-out: ED50 (cytotoxicity), Tmolt; for activity in T molt-3 screen: in words
Procedure: (§2) More specifically, the cytotoxic activity of the boron adducts of the present invention was tested on the following neoplastic cell lines:
2. Tmolt^S acute lymphoblastic T cell leukemia, S. Schreiber and N. Ikemoto, Tett. Lett 29, 3211 (1988) (grown in RPMI - 1640+10% FBS).
as §1

[3] = tested on: Human glioma cell EH 118 MG; experiment: Cytotoxicity, human glioma cell EH 118 MG; type: cell-based; conditions: read-out: ED50 (cytotoxicity), Glioma
Procedure: 9. Human glioma cell EH 118 MG transformed stain of Rous sarcoma virus, J. Lutton et al., J. Biol. Chem. 254, 11181 (1979) (grown in DMEM-H+10% FCS).
as §1

[4] = tested on: Lung bronchogenic MB-9812; experiment: Cytotoxicity, lung bronchogenic MB-9812; type: cell-based; conditions: read-out: ED50 (cytotoxicity), Lung Bronchogenic
Procedure: 4. Lung bronchogenic MB-9812, S. Aronson et al., Expt. Cell Res. 61, 1 (1970) (grown in EMEM+10% FBS+NEAA).
as §1

[5] = tested on: SW480 human colorectal carcinoma; experiment: Cytotoxicity, colon adenocarcinoma SW480 human colorectal carcinoma; type: cell-based
Procedure: as §2
3. Colon adenocarcinoma SW480 human colorectal carcinoma. A. Leibovitz et al., Cancer Res. 36, 4562 (1976) (grown in L15+10% FBS).
as §1

[6] = tested on: L1210 lymphoid leukemia cells; experiment: Cytotoxicity, L1210 lymphoid leukemia cells; type: cell-based; conditions: Mus musculus, read-out: ED50 (cytotoxicity), L1210
Procedure: as §2
1. L1210 lymphoid leukemia cells, R. Geran et al., Cancer Chemotherapy Reports 3, 7 (1972).(grown in RPMI+15% FBS+antibiotics).
as §1

Human Osteosarcoma TE418 = experiment: Cytotoxicity, human osteosarcoma TE418; type: cell-based
Procedure: 5. Human Osteosarcoma TE418. H. Smith et al., Int. J. Cancer 17, 219 (1976) (grown in DMEM+10% FBS).
as §1

serum cholesterol levels = experiment: Antihyperlipidemic activity, serum cholesterol; type: in vivo, male CF1 mice; conditions: mice; for Hypolipidemic: Cholesterol Inhibition, % inhibition: 8 mg/kg/day, intraperitoneal for 16d
Procedure: (§3) Compounds to be tested were suspended in 1% aqueous carboxymethylcellulose,homogenized and administered to male CF1 mice (25 g) intraperitoneally for 16d. On days 9 and 16, blood was obtained by tail vein bleeding, and the serum was separated by centrifugation for three minutes. The serum cholesterol levels were determined by a modification of the Liebermann--Burchard reaction in accordance with known techniques. See A. Ness, et al., Clin. Chim. Acta 10, 229 (1964). Serum triglyceride levels were determined with a commercial kit, the Fisher Hycel Triglyceride Test Kit, for a different group of animals bled on day 16.

inflammatory response = experiment: Anti-inflammatory activity, carrageenan-injected hind foot; type: in vivo, CF1 male mice; conditions: mice; for Antiinflammatory Activity, % inhibition: 8 mg/kg/day, intraperitoneal, 3 hours and 30 minutes prior to carrageenan
Procedure: CF1 male mice (~25 g) were administered test drugs at 5-40 mg/kg in 0.05% Tween 80--H2 O intraperitoneally 3 hours prior to and 30 minutes prior to the injection of 0.2 ml of 1% carrageenan in 0.9% saline into the plantar surface of the right hind foot. Saline was injected into the left hind foot, which serves as a base line. After 3 hours, both feet were excised at the tibiotarsal (ankle) joint according to standard procedures. See C. Winter et al., Proc. Soc. Expt. Biol Med. 544, 111 (1962); A. Roszkawski et al., J. Pharm. Exp. Ther. 179, 114 (1971). Control mice afforded a 78±3 mg increase in paw weight.

[7] = tested on: Serum triglyceride levels; experiment: Antihyperlipidemic activity, serum triglyceride; type: in vivo, male CF1 mice; conditions: mice; for Hypolipidemic: Triglyceride Inhibition, % inhibition: 8 mg/kg/day, intraperitoneal, bled on day 16
Procedure: as §3

[8] = Stability in aqueous medium by HPLC; type: physicochemical; conditions: for remaining at 168 h: period of 168 h, read-out: stable in aqueous medium; for stability in aqueous medium: in words
Procedure: By HPLC, compounds 3a, 3b, and 3d in aqueous medium (0.01 M TEAAc) are >94% stable over a period of 168 h. […], however, is >50% decomposed during this period.

[9] = Mus musculus, P388, read-out: ED50 (cytotoxicity), P388
[10] = Homo sapiens, SW480, read-out: ED50 (cytotoxicity), Adeno Carcinoma SW480
[11] = read-out: ED50 (cytotoxicity), Osteo sarcoma
[12] = Mus musculus, P388; read-out: ED50 (cytotoxicity), P388
[13] = Homo sapiens, SW480; read-out: ED50 (cytotoxicity), Adeno Carcinoma SW480
[14] = Osteosarcoma TE418, read-out: ED50 (cytotoxicity), Osteo sarcoma

SMILES	IC50 [1]	IC50 (Hela-S; HeLa, 72 h)	IC50 ([2]; 72 h)	IC50 [3]	IC50 [4]	IC50 [5, 10]	IC50 ([6]; L1210, 72 h)	IC50 (P388; [12])	IC50 (Hela-S; Hela-S, 72 hr at 37° C.)	IC50 ([2]; Tmolt, 72 hr at 37° C.)	IC50 ([3]; Glioma EH 118 MG)	IC50 ([4]; Lung bronchogenic MB-9812)	IC50 [5, 13]	IC50 ([6]; L1210, 72 hr at 37° C.)	Hypolipidemic: Cholesterol Inhibition, % inhibition (serum cholesterol levels)	Antiinflammatory Activity, % inhibition (inflammatory response)	Hypolipidemic: Triglyceride Inhibition, % inhibition [7]	other results
CC(C)[Si](OC[C@H]1O[C@@H](n2c[n+]([BH2-]C#N)c3c(=O)[nH]c(N)nc32)C[C@@H]1O[Si](C(C)C)(C(C)C)C(C)C)(C(C)C)C(C)C [Compound 2a, 3',5'-O-Bis(triisopropylsilyl)-2'-deoxyguanosine N7-cyanoborane]	2.67 µg/mL (≈ 4.31 µM)	2.83 µg/mL (≈ 4.57 µM)	2.26 µg/mL (≈ 3.65 µM)	7.61 µg/mL (≈ 12.3 µM)	4.05 µg/mL (≈ 6.55 µM)	2.67 µg/mL (≈ 4.31 µM)	6.05 µg/mL (≈ 9.78 µM)											IC50 (P388; [9]): 5.13 µg/mL (≈ 8.29 µM); IC50 (Human Osteosarcoma TE418; [11]): 7.2 µg/mL (≈ 11.6 µM)
CC(C)[Si](OC[C@H]1O[C@@H](n2c[n+]([BH2-]C#N)c3c(=O)[nH]cnc32)C[C@@H]1O[Si](C(C)C)(C(C)C)C(C)C)(C(C)C)C(C)C [Compound 2b, 3', 5-O-Bis(triisopropylislyl)-2'-deoxyinosine-N7-cyanoborane]	5.29 µg/mL (≈ 8.76 µM)	3.26 µg/mL (≈ 5.4 µM)	6.49 µg/mL (≈ 10.7 µM)	6.21 µg/mL (≈ 10.3 µM)	6.2 µg/mL (≈ 10.3 µM)	2.57 µg/mL (≈ 4.26 µM)	4 µg/mL (≈ 6.63 µM)											IC50 (P388; [9]): 7.31 µg/mL (≈ 12.1 µM)
CC(C)[Si](OC[C@H]1O[C@@H](n2cnc3c(N)[n+]([BH2-]C#N)cnc32)C[C@@H]1O[Si](C(C)C)(C(C)C)C(C)C)(C(C)C)C(C)C [Compound 2c, 3', 5'-O-Bis(triisopropylsilyl)-2'-deoxyadenosine-N1-cyanoborane]	5.79 µg/mL (≈ 9.61 µM)	3.42 µg/mL (≈ 5.67 µM)	1.88 µg/mL (≈ 3.12 µM)	4.99 µg/mL (≈ 8.28 µM)	5.58 µg/mL (≈ 9.26 µM)	2.87 µg/mL (≈ 4.76 µM)	6.86 µg/mL (≈ 11.4 µM)											IC50 (P388; [9]): 7.46 µg/mL (≈ 12.4 µM)
CC(C)[Si](OC[C@H]1O[C@@H](n2ccc(N)[n+]([BH2-]C#N)c2=O)C[C@@H]1O[Si](C(C)C)(C(C)C)C(C)C)(C(C)C)C(C)C [Compound 2d, 3', 5'-O-Bis(triisopropylsilyl)-2'-deoxycytidine-N3-cyanoborane]	5.72 µg/mL (≈ 9.88 µM)							7.26 µg/mL (≈ 12.5 µM)	2.94 µg/mL (≈ 5.08 µM)	3.36 µg/mL (≈ 5.81 µM)	6.77 µg/mL (≈ 11.7 µM)	6.6 µg/mL (≈ 11.4 µM)	2.73 µg/mL (≈ 4.72 µM)	4.78 µg/mL (≈ 8.26 µM)				
N#C[BH2-][n+]1cn([C@H]2C[C@H](O)[C@@H](CO)O2)c2nc(N)[nH]c(=O)c21 [Compound 3a, 2'-Deoxyguanosine-N7-cyanoborane]								5.87 µg/mL (≈ 19.2 µM)						5.08 µg/mL (≈ 16.6 µM)	44%	22%	37%	remaining at 168 h ([8]; 0.01 M TEAAc, HPLC): > 94%; stability in aqueous medium [8]: good stability
N#C[BH2-][n+]1cn([C@H]2C[C@H](O)[C@@H](CO)O2)c2nc[nH]c(=O)c21 [Compound 3b, 2'-Deoxyinosine-N^7-cyanoborane]	3.45 µg/mL (≈ 11.9 µM)							7.21 µg/mL (≈ 24.8 µM)	2.41 µg/mL (≈ 8.28 µM)	1.73 µg/mL (≈ 5.94 µM)	8.49 µg/mL (≈ 29.2 µM)	4.93 µg/mL (≈ 16.9 µM)	3.86 µg/mL (≈ 13.3 µM)	4 µg/mL (≈ 13.7 µM)	19%	25%	30%	degraded at 168 h ([8]; 0.01 M TEAAc, 168 h, HPLC, read-out: decomposed in aqueous medium): > 50%; remaining at 168 h ([8]; 0.01 M TEAAc, HPLC): > 94%; IC50 (Human Osteosarcoma TE418; [14]): 7.28 µg/mL (≈ 25 µM)
N#C[BH2-][n+]1cnc2c(ncn2[C@H]2C[C@H](O)[C@@H](CO)O2)c1N [Compound 3c, 2'-Deoxyadenosine-N1-cyanoborane]	3.12 µg/mL (≈ 10.8 µM)							5.96 µg/mL (≈ 20.5 µM)	2.35 µg/mL (≈ 8.1 µM)	1.36 µg/mL (≈ 4.69 µM)	6.88 µg/mL (≈ 23.7 µM)	5.26 µg/mL (≈ 18.1 µM)	2.82 µg/mL (≈ 9.72 µM)	3.68 µg/mL (≈ 12.7 µM)	44%	22%	37%	activity in T molt-3 screen [2]: potent activity; activity in human colorectal adenocarcinoma screen ([5]; in words): potent activity; stability in aqueous medium [8]: good stability; IC50 (Human Osteosarcoma TE418; [14]): 7.39 µg/mL (≈ 25.5 µM)
N#C[BH2-][n+]1c(N)ccn([C@H]2C[C@H](O)[C@@H](CO)O2)c1=O [Compound 3d, 2' Deoxycytidine-N3-cyanoborane]	5.46 µg/mL (≈ 20.5 µM)							3.17 µg/mL (≈ 11.9 µM)	3.37 µg/mL (≈ 12.7 µM)	1.13 µg/mL (≈ 4.25 µM)	4.39 µg/mL (≈ 16.5 µM)	3.73 µg/mL (≈ 14 µM)	2.96 µg/mL (≈ 11.1 µM)	2.61 µg/mL (≈ 9.81 µM)	38%	52%	23%	activity in T molt-3 screen [2]: potent activity; activity in human colorectal adenocarcinoma screen ([5]; in words): potent activity; remaining at 168 h ([8]; 0.01 M TEAAc, HPLC): > 94%; stability in aqueous medium [8]: good stability; IC50 (Human Osteosarcoma TE418; [14]): 4.63 µg/mL (≈ 17.4 µM)
CC(C)[Si](OC[C@H]1O[C@@H](n2ccc(N)[n+]([BH2-]C#N)c2=O)C[C@@H]1O)(C(C)C)C(C)C [Compound 4]	4.07 µg/mL (≈ 9.64 µM)	3.63 µg/mL (≈ 8.59 µM)	2.34 µg/mL (≈ 5.54 µM)	3.43 µg/mL (≈ 8.12 µM)	5.58 µg/mL (≈ 13.2 µM)	2.71 µg/mL (≈ 6.42 µM)	2.92 µg/mL (≈ 6.91 µM)											IC50 (Human Osteosarcoma TE418; [11]): 6.62 µg/mL (≈ 15.7 µM)
CCOC(=O)C(C)(C)Oc1ccc(Cl)cc1 [clofibrate, reference compound]																		Hypolipidemic: Cholesterol Inhibition, % inhibition (Standard) (serum cholesterol levels; 130 mg/kg/day): 13%; Hypolipidemic: Triglyceride Inhibition, % inhibition (Standard) ([7]; standard (clofibrate at 130 mg/kg/day)): 25%
CCCCC1C(=O)N(c2ccccc2)N(c2ccccc2)C1=O [phenylbutazone, reference compound]																		Antiinflammatory Activity, % inhibition (Standard) (inflammatory response; standard, column head 8 mg/kg/day): 47%
